Experimental findings from patent EP0358085A1, “(1R,5S,6S)-6-[(R)-1-Hydroxyethyl]-1-methyl-2-[(1-alkyl-1,2,4-triazolium-2-yl)alkyl]-thio-carbapenem-3-carboxylic acid derivatives” (LEDERLE (JAPAN) LTD., priority 1988, dated 1990) are described below.

Data set [1] concerns male mice of CrjCD(SD) strain. As to the kind of experiment: Toxicity study in mice, subcutaneous administration, observation for one week. Format: in vivo. The conditions noted are these: 500 mg/kg, subcutaneously. The method, then:
Toxicological studies were carried out using a group of 10 male mice of CrjCD(SD) strain weighing from 20 to 23 grams. A solution containing the carbapenem compound (11) of the present invention obtained by Example 3 was administered subcutaneously to the mice and subjected to observations for one week.

The test system of data set [2] is Providencia rettgeri IFO 3850. The data set is described as follows: Antibacterial test, agar plate dilution method (MIC). Format: cell-based. The conditions noted are these: IFO3850, MH agar, 37°C, 18 hours. The method, then: (§1) The antibacterial activities were tested by an agar plate dilution method in accordance with the standard method of The Japanese Chemotherapy Society [Chemotherapy, Vol. 29, 76-79 (1981)].
(§2) A Mueller-Hinton (MH) agar liquid medium of a test microorganism was cultured overnight at 37°C and the resultant culture medium was diluted with a buffered saline gelatin (BSG) solution to contain approximately 10⁶ cells of the test microorganisms per milliliter, and then the diluted solution was inoculated with a micro-planter at the rate of approximately 5 microliters on a MH agar medium containing a test compound. This medium was then incubated at 37°C for 18 hours. The minimum inhibitory concentration (MIC) is determined as a minimum concentration in which no test microorganism could grow. It is noted here that the test organisms used were all standard strains.

For data set [3], the system named is Staphylococcus aureus FDA 209PJC-1. The data set is described as above. The conditions noted are these: FDA209PJC1, MH agar, 37°C, 18 hours. Format: cell-based. The method, then:
as §1, §2

Data set [4] concerns Morganella morganii IFO3848. Described as above. Format: cell-based. The note with it: MH agar, 37°C, 18 hours. On the procedure:
as §1, §2

Data set [5] deals with Escherichia coli NIHJ JC-2. Described as above. Format: cell-based. The note with it: NIHJJC2, MH agar, 37°C, 18 hours. On the procedure: as §1, §2
In another data set the test system is Salmonella typhi 901. Described as above. Format: cell-based. The conditions noted are these: Salmonella enterica, 18 h. The method, then:
as §1, §2

Another data set relates to Proteus vulgaris OX-19. The description is as above. Format: cell-based. The conditions noted are these: OX19, MH agar, 37°C, 18 hours. On the procedure:
as §1, §2

For data set [6], the system named is Enterobacter aerogenes ATCC1304. The description is as above. The conditions noted are these: Klebsiella aerogenes. Format: cell-based. The method, then: as §1, §2
For data set [7], the system named is Salmonella schottmuelleri 8006. The data set is described as above. Format: cell-based. The conditions noted are these: MH agar, 37°C, 18 hours. The method, then:
as §1, §2

Data set [8] deals with Streptococcus pyogenes Cook. The data set is described as above. Format: cell-based. The note with it: MH agar, 37°C, 18 hours. On the procedure: as §1, §2
Data set [9] deals with Proteus mirabilis IFO3849. The description is as above. Format: cell-based. The method, then: as §1, §2
A further data set relates to Enterobacter cloacae 963. The data set is described as above. Format: cell-based. The note with it: MH agar, 37°C, 18 hours. The method, then: as §1, §2
For data set [10], the system named is Salmonella enteritidis G14. The description is as above. Format: cell-based. The conditions noted are these: Salmonella enterica. The method, then: as §1, §2
In data set [11] the test system is Escherichia coli K12 C600. The description is as above. The conditions noted are these: K12C600, MH agar, 37°C, 18 hours. Format: cell-based. On the procedure:
as §1, §2

For data set [12], the system named is Salmonella paratyphi 1015. Described as above. Format: cell-based. The conditions noted are these: Salmonella enterica, MH agar, 37°C, 18 hours. On the procedure:
as §1, §2

The subject of data set [13] is Staphylococcus aureus Terajima. The description is as above. Format: cell-based. The conditions noted are these: MH agar, 37°C, 18 hours. The method, then: as §1, §2
In data set [14] the test system is Serratia marcescens IAM1184. The data set is described as above. Format: cell-based. The conditions noted are these: MH agar, 37°C, 18 hours. The method, then: as §1, §2
Data set [15] relates to Bacillus subtilis ATCC6633. The description is as above. Format: cell-based. The note with it: MH agar, 37°C, 18 hours. On the procedure:
as §1, §2

The test system of data set [16] is Micrococcus luteus ATCC9341. Described as above. Format: cell-based. The note with it: MH agar, 37°C, 18 hours. On the procedure:
as §1, §2

The subject of data set [17] is Klebsiella pneumoniae PCI-602. Described as above. Format: cell-based. The conditions noted are these: PCI602, MH agar, 37°C, 18 hours. On the procedure: as §1, §2
Data set [18] has as its system Staphylococcus aureus MS353. The data set is described as above. Format: cell-based. The note with it: MH agar, 37°C, 18 hours. On the procedure:
as §1, §2

In data set [19] the test system is Pseudomonas aeruginosa NCTC 10490. The description is as above. Format: cell-based. The conditions noted are these: NCTC10490, MH agar, 37°C, 18 hours. On the procedure:
as §1, §2

In data set [20] the test system is Pseudomonas aeruginosa IFO 3445. Described as above. Format: cell-based. The conditions noted are these: IFO3445, MH agar, 37°C, 18 hours. The method, then:
as §1, §2

Data set [21] relates to Salmonella typhimurium IID971. Described as above. The conditions noted are these: Salmonella enterica, MH agar, 37°C, 18 hours. Format: cell-based. On the procedure:
as §1, §2

The subject of a further data set is Proteus vulgaris HX-19. The description is as above. Format: cell-based. The note with it: HX19, MH agar, 37°C, 18 hours. On the procedure: as §1, §2
In data set [22] the target is T1, Swine Kidney Dehydropeptidase-I (DHP-I) (Sus scrofa, UniProt P22412).
T1 construct: made soluble by treatment with butanol and purified by the ammonium sulfate fraction method, thereby producing DHP-I enzyme; from tissue; host or cells: swine kidney
As to the kind of experiment: Hydrolysis activity against DHP-I enzyme substrate by late assay (decrease in absorbency). Format: biochemical. The conditions noted are these: final substrate concentration 100µM; 37°C, 10 minutes; pH 7.1. On the procedure: The swine kidney (8 kg) was homogenized and the enzyme protein was allowed to precipitate. After a connective lipid was removed with acetone, the resultant material was made soluble by treatment with butanol and purified by the ammonium sulfate fraction method, thereby producing DHP-I enzyme from a 75 % ammonium sulfate fraction. The DHP-I enzyme was then adjusted to give an enzyme concentration of 25 mg/10 ml (phosphate buffer, pH 7.1), and divided into 1 ml portions. The portions were frozen and stored at -40°C or less until use. Glycyl dehydrophenylalanine (Gl-dh-Ph) and imipenem were employed as control compounds, and they were adjusted in situ each to give a concentration of 117µM with the same sodium phosphate buffer solution. […] The solution was then incubated at 37°C for 10 minutes. The initial velocity of hydrolysis of the substrate was measured from a decrease in absorbency at a particular λmax of each of the substrates. A blank test was conducted in substantially the same manner as above by adding 0.2 ml of the sodium phosphate buffer solution (pH 7.1) to 1.2 ml of the above substrate.

For data set [23], the target named is T1, Swine Kidney Dehydropeptidase-I (DHP-I). As to the kind of experiment: Stability of test compounds against DHP-I by HPLC. Format: in vitro ADME. The conditions noted are these: 37°C, 4.5 hours, Substrate Concentration: 100 µM. The method, then: The swine kidney (8 kg) was homogenized and the enzyme protein was allowed to precipitate. After a connective lipid was removed with acetone, the resultant material was made soluble by treatment with butanol and purified by the ammonium sulfate fraction method, thereby producing DHP-I enzyme from a 75 % ammonium sulfate fraction. The DHP-I enzyme was then adjusted to give an enzyme concentration of 25 mg/10 ml (phosphate buffer, pH 7.1), and divided into 1 ml portions. The portions were frozen and stored at -40°C or less until use. The test compound was adjusted in situ to give a concentration of 117µM with a 50 mM sodium phosphate buffer solution (pH =7.1). Glycyl dehydrophenylalanine (Gl-dh-Ph) and imipenem were employed as control compounds, and they were adjusted in situ each to give a concentration of 117µM with the same sodium phosphate buffer solution. The test compound according to the present invention and the control compounds were treated in substantially the same manner as (1) above. The incubation, however, was conducted at 37°C for 4.5 hours or for 24 hours. The degree of hydrolysis of the compounds each after the test periods was measured by the HPLC method.

Values after ≈ are worked out from the molar mass of the structure shown. Like-named read-outs stand apart in the source and are kept apart here.

T1 sequence (P22412 17-384): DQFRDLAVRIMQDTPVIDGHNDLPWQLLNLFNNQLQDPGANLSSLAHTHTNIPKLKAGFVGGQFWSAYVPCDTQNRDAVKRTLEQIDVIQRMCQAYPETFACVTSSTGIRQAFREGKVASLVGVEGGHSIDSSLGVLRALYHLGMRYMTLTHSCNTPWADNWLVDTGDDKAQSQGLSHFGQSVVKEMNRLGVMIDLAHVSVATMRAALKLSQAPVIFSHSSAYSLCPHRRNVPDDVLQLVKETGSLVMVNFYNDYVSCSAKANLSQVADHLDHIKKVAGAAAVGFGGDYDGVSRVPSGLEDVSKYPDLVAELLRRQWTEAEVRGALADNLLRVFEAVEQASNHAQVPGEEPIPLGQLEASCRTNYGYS

What is called MIC is the least concentration at which growth counts as inhibited. Turning to `C[C@@H](O)[C@H]1C(=O)N2C(C(=O)[O-])=C(SCCn3cnc[n+]3C)[C@H](C)[C@H]12` [Compound (11), (1R,5S,6S)-6-[(R)-1-hydroxyethyl]-1-methyl-2-[2-(1-methyl-1,2,4-triazolium-2-yl)ethyl]thio-carbapenem-3-carboxylate], the “toxicity: survival and abnormal observations” value in [1] is “alive without any abnormal observations”. The MIC in [2] amounted to 0.05 µg/mL (≈ 0.142 µM); in data set [3] it was 0.1 µg/mL (≈ 0.284 µM); in data set [4] it was 0.39 µg/mL (≈ 1.11 µM); in data set [5] it was 0.1 µg/mL (≈ 0.284 µM); in the data set on Salmonella typhi 901, 0.05 µg/mL (≈ 0.142 µM); against Proteus vulgaris OX-19 it was 0.78 µg/mL (≈ 2.21 µM). Moreover, the MIC in [6] (Enterobacter aerogenes ATCC1304, MH agar, 37°C, 18 hours, read-out: MIC) is 0.78 µg/mL (≈ 2.21 µM); in data set [7], 0.39 µg/mL (≈ 1.11 µM); in data set [8], 0.05 µg/mL (≈ 0.142 µM); in [9] (Proteus mirabilis IFO3849, MH agar, 37°C, 18 hours, read-out: MIC), 1.56 µg/mL (≈ 4.43 µM); with Enterobacter cloacae 963, 0.1 µg/mL (≈ 0.284 µM); in [10] (Salmonella enteritidis G14, MH agar, 37°C, 18 hours, read-out: MIC) it was 0.78 µg/mL (≈ 2.21 µM). Also, the MIC in [11] came to 0.78 µg/mL (≈ 2.21 µM); in data set [12], 0.78 µg/mL (≈ 2.21 µM); in [13], 0.025 µg/mL (≈ 0.0709 µM); in [14], 0.2 µg/mL (≈ 0.568 µM); in data set [15], 0.2 µg/mL (≈ 0.568 µM); in [16], 0.1 µg/mL (≈ 0.284 µM). The MIC in data set [17] is 0.2 µg/mL (≈ 0.568 µM); in [18] it was 0.05 µg/mL (≈ 0.142 µM); in data set [19], 0.78 µg/mL (≈ 2.21 µM); in data set [20], 1.56 µg/mL (≈ 4.43 µM); in [21], 0.2 µg/mL (≈ 0.568 µM); against Proteus vulgaris HX-19, 0.78 µg/mL (≈ 2.21 µM).

Consider `NCC(=O)NC(=Cc1ccccc1)C(=O)O` [Gl-dh-Ph, Glycyl dehydrophenylalanine], for which the “initial velocity of hydrolysis” value in [22] stood at 17.4 µM/min.

On to `C[C@@H](O)[C@H]1C(=O)N2C(C(=O)O)=C(SCCNC=N)C[C@H]12` [Imipenem, imipenem], for which, in [23], the “DEGREES OF HYDROLYSIS BY DHP-I” value amounted to 77.6 µM. The “initial velocity of hydrolysis” value in [22] stood at 0.56 µM/min. Moreover, the MIC is 0.05 µg/mL (≈ 0.167 µM) in [2]; 0.013 µg/mL (≈ 0.0434 µM) in data set [3]; 3.13 µg/mL (≈ 10.5 µM) in data set [4]; 0.1 µg/mL (≈ 0.334 µM) in [5]; 0.05 µg/mL (≈ 0.167 µM) in the data set with Salmonella typhi 901; 3.13 µg/mL (≈ 10.5 µM) against Proteus vulgaris OX-19. Besides, the MIC was 1.56 µg/mL (≈ 5.21 µM) in [6] (ATCC1304, 18 h); 0.78 µg/mL (≈ 2.61 µM) in data set [7]; < 0.006 µg/mL in data set [8]; 6.25 µg/mL (≈ 20.9 µM) in data set [9] (Proteus mirabilis, IFO3849, 18 h); 0.78 µg/mL (≈ 2.61 µM) with Enterobacter cloacae 963; 1.56 µg/mL (≈ 5.21 µM) in data set [10] (ENTERITIDIS, 18 h). The MIC in data set [11] is 3.13 µg/mL (≈ 10.5 µM); in data set [12] it was 1.56 µg/mL (≈ 5.21 µM); in [13], < 0.006 µg/mL; in [14], 0.2 µg/mL (≈ 0.668 µM); in data set [15], 0.025 µg/mL (≈ 0.0835 µM); in data set [16] it was < 0.006 µg/mL. Besides, the MIC in data set [17] turned out to be 0.2 µg/mL (≈ 0.668 µM); in data set [18], 0.013 µg/mL (≈ 0.0434 µM); in data set [19], 0.39 µg/mL (≈ 1.3 µM); in data set [20], 0.78 µg/mL (≈ 2.61 µM); in data set [21], 0.2 µg/mL (≈ 0.668 µM); against Proteus vulgaris HX-19 it was 3.13 µg/mL (≈ 10.5 µM).
